How the values were obtained:
[1] = biological target: Protein kinase C epsilon type (Homo sapiens, UniProt Q02156); experiment: Inhibition of recombinant full length human GST-tagged PRKCE expressed in insect expression system using serine/threonine-7 peptide as substrate incubated for 60 mins in presence of ATP by Z'-LYTE assay
[2] = biological target: Nuclear receptor subfamily 1 group I member 2 (Homo sapiens, UniProt O75469); experiment: Inhibition of PXR (unknown origin)
[3] = biological target: Proto-oncogene tyrosine-protein kinase receptor Ret (Homo sapiens, UniProt P07949, V804L); experiment: Inhibition of recombinant human GST-tagged RET V804L mutant cytoplasmic domain expressed in baculovirus expression system using tyr02 peptide as substrate incubated for 60 mins in presence of ATP by Z'-LYTE assay
[4] = biological target: Serine/threonine-protein kinase mTOR (Homo sapiens, UniProt P42345); experiment: Inhibition of recombinant human GST-tagged mTOR catalytic domain (1360 to 2549 residues) expressed in baculovirus expression system using serine/threonine-11 peptide as substrate incubated for 60 mins in presence of ATP by Z'-LYTE assay
[5] = biological target: Mitogen-activated protein kinase kinase kinase 8 (Homo sapiens, UniProt P41279); experiment: Inhibition of recombinant human GST-tagged MAP3K8 catalytic domain expressed in baculovirus expression system using serine/threonine-3 peptide as substrate incubated for 60 mins in presence of ATP by Z'-LYTE assay
Chain of Mitogen-activated protein kinase kinase kinase 8 (P41279 whole entry, the tested form may be a part): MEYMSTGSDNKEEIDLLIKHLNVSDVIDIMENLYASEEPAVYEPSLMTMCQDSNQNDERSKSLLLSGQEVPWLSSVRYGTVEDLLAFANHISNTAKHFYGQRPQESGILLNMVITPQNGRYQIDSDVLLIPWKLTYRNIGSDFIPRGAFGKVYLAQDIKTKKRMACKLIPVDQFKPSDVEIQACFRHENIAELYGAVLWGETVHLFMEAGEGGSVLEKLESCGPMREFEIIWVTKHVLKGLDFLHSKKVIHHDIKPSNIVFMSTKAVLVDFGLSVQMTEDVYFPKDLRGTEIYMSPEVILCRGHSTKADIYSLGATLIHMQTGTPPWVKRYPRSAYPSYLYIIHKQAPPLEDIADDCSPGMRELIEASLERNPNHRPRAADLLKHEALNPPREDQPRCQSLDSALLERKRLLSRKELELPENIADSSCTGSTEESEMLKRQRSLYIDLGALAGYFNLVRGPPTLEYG

[6] = biological target: Tyrosine-protein kinase ABL1 (Homo sapiens, UniProt P00519); experiment: Inhibition of recombinant full length human His-tagged ABL1 cytoplasmic domain expressed in baculovirus expression system using tyrosine-2 peptide as substrate incubated for 60 mins in presence of ATP by Z'-LYTE assay
[7] = biological target: Dual specificity mitogen-activated protein kinase kinase 6 (Homo sapiens, UniProt P52564); experiment: Inhibition of recombinant full length human His-tagged MAP2K6 expressed in baculovirus expression system using serine/threonine-3 peptide as substrate incubated for 60 mins in presence of ATP by Z'-LYTE assay
[8] = biological target: Death-associated protein kinase 1 (Homo sapiens, UniProt P53355); experiment: Inhibition of recombinant human GST-tagged DAPK1 catalytic domain (1 to 363 residues) expressed in baculovirus expression system using ZIPtide peptide as substrate incubated for 60 mins in presence of ATP by Adapta assay
[9] = biological target: DNA-dependent protein kinase catalytic subunit (Homo sapiens, UniProt P78527); experiment: Inhibition of recombinant human DNA-PK expressed in baculovirus expression system using serine/threonine-26 peptide as substrate incubated for 60 mins in presence of ATP by Z'-LYTE assay
[10] = species: Mesocricetus auratus; experiment: Displacement of [3H]glyburide from KATP receptor in HIT-T15 Syrian hamster pancreatic B cell membranes at 10 uM after 120 mins by radiometric scintillation analysis relative to control
[11] = biological target: Voltage-gated inwardly rectifying potassium channel KCNH2 (Homo sapiens, UniProt Q12809); experiment: Inhibition of human ERG
Chain of Voltage-gated inwardly rectifying potassium channel KCNH2 (Q12809 whole entry): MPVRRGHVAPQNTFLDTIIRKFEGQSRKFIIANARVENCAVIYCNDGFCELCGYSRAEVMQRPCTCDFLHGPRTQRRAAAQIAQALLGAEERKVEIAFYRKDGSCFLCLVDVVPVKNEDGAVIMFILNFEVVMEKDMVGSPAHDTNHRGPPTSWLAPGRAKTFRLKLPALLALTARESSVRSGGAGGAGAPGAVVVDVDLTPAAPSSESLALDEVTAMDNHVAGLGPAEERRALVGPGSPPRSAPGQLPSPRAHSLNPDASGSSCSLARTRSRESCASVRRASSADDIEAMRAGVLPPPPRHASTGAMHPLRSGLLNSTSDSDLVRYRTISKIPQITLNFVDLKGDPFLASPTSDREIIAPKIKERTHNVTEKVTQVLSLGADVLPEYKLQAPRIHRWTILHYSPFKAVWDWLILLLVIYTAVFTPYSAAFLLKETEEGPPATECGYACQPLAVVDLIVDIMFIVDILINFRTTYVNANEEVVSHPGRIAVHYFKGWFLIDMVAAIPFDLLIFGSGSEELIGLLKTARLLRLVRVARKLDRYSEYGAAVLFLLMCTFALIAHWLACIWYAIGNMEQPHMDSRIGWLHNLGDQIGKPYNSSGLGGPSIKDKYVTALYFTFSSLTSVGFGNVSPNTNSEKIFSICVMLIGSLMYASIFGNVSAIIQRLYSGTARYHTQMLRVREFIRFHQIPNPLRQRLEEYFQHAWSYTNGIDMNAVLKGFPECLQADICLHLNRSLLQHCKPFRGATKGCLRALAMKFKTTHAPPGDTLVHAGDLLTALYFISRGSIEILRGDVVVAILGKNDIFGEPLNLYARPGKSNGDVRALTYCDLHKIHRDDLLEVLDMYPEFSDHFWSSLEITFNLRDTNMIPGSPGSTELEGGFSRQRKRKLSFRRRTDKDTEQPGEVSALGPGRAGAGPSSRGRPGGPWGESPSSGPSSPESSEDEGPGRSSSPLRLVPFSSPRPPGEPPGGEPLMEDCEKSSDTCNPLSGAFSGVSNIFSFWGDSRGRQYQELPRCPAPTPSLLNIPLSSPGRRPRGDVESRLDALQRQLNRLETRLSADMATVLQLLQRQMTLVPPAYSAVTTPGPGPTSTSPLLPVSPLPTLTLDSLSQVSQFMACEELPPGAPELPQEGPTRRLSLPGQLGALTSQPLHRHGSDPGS

[12] = biological target: Endothelin receptor type B (Homo sapiens) (UniProt P24530); experiment: Displacement of [125I]endothelin-1 from recombinant full length human recombinant ETB receptor expressed in CHO-K1 cells at 10 uM measured after 120 mins by radiometric scintillation analysis relative to control; type: cell-based
Chain of Endothelin receptor type B (Homo sapiens) (P24530 whole entry): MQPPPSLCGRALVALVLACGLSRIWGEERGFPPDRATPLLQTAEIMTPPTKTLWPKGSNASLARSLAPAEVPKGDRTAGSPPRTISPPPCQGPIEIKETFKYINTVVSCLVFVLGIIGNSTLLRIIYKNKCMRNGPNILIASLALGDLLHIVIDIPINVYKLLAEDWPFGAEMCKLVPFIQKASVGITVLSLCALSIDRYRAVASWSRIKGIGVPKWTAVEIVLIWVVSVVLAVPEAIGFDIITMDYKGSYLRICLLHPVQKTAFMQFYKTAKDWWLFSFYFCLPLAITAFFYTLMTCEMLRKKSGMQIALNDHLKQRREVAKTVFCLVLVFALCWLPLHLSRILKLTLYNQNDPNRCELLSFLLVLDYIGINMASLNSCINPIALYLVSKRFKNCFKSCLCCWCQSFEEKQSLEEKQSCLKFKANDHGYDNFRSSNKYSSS

[13] = species: Homo sapiens; experiment: Selectivity index, ratio IC50 for inhibition of recombinant human full-length N-terminal His6-tagged p110alpha/untagged full-length p85alpha expressed in baculovirus infected Sf21 cells to ratio IC50 for inhibition of recombinant human full-length N-terminal GST-tagged p110delta/untagged full-length p85alpha expressed in baculovirus infected Sf21 cells
[14] = biological target: RAC-alpha serine/threonine-protein kinase (Homo sapiens, UniProt P31749); experiment: Inhibition of recombinant full length human His-tagged AKT1 expressed in baculovirus expression system using serine/threonine-06 peptide as substrate incubated for 60 mins in presence of ATP by Z'-LYTE assay
[15] = biological target: Dual specificity protein kinase CLK2 (Homo sapiens, UniProt P49760); experiment: Inhibition of recombinant human GST-tagged CLK2 catalytic domain (137 to 498 residues) expressed in baculovirus expression system using serine/threonine-6 peptide as substrate incubated for 60 mins in presence of ATP by Z'-LYTE assay
[16] = biological target: Caspase-8 (Homo sapiens) (UniProt Q14790); experiment: Inhibition of recombinant human caspase 8 (217 to end residues) expressed in Escherichia coli at 10 uM using Ac-IETD-AMC as substrate after 60 mins by spectrophotometric analysis relative to control
[17] = biological target: Tyrosine-protein kinase SYK (Homo sapiens, UniProt P43405); experiment: Inhibition of recombinant full length human GST-tagged SYK expressed in baculovirus expression system using tyrosine-2 peptide as substrate incubated for 60 mins in presence of ATP by Z'-LYTE assay
[18] = biological target: Serine/threonine-protein kinase 25 (Homo sapiens, UniProt O00506); experiment: Inhibition of recombinant full length human GST-tagged YSK1 expressed in baculovirus expression system using serine/threonine-7 peptide as substrate incubated for 60 mins in presence of ATP by Z'-LYTE assay
[19] = biological target: 5-hydroxytryptamine receptor 6 (Homo sapiens) (UniProt P50406); experiment: Displacement of [3H] lysergic acid diethylamide from full length human recombinant 5HT6 receptor expressed in HeLa/E6-7 cells at 10 uM measured after 120 mins by radiometric scintillation analysis relative to control; type: cell-based
Chain of 5-hydroxytryptamine receptor 6 (Homo sapiens) (P50406 whole entry): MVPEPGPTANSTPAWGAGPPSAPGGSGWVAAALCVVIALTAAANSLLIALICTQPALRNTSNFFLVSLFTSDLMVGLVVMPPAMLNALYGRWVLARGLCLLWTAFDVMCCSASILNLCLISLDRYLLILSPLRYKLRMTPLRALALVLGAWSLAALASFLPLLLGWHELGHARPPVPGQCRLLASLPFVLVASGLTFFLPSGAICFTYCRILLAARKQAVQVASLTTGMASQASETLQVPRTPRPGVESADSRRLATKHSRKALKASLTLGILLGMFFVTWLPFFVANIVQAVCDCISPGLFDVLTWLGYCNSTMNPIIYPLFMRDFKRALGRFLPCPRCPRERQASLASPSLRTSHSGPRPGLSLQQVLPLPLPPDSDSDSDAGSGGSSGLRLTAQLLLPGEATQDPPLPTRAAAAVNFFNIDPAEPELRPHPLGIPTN

[20] = biological target: Progesterone receptor (Homo sapiens) (UniProt P06401); experiment: Inhibition of human progesterone B receptor at 10 uM relative to control
Chain of Progesterone receptor (Homo sapiens) (P06401 whole entry): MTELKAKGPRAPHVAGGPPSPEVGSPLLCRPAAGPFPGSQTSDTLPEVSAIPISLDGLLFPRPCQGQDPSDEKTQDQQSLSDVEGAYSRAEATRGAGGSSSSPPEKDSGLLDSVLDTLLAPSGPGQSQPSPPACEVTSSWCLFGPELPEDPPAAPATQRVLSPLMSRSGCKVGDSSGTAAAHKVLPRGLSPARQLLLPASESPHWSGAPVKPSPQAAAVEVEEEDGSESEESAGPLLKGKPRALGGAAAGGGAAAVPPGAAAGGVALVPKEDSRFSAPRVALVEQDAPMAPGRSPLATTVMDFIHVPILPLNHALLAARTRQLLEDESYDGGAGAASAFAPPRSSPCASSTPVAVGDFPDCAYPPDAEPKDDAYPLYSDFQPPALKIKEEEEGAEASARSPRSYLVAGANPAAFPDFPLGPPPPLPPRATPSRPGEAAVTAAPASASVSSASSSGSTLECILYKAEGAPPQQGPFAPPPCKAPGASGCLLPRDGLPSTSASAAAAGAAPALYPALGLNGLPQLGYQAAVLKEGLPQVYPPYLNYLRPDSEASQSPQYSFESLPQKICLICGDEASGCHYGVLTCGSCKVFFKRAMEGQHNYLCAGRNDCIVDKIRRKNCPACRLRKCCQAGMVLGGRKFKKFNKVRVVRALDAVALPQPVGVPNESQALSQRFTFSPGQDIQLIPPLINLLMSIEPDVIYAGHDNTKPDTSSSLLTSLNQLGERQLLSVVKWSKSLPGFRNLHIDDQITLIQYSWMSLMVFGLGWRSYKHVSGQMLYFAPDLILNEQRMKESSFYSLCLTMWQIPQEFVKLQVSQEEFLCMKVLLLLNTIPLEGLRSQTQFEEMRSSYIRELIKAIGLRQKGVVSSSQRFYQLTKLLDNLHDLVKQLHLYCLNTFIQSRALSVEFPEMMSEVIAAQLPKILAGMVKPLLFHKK

[21] = species: Homo sapiens; experiment: Inhibition of recombinant human PKA expressed in Escherichia coli at 10 uM using peptide as substrate after 15 mins by radiometric scintillation analysis relative to control
[22] = biological target: Protein kinase C delta type (Homo sapiens, UniProt Q05655); experiment: Inhibition of recombinant full length human GST-tagged PRKCD expressed in insect expression system using serine/threonine-7 peptide as substrate incubated for 60 mins in presence of ATP by Z'-LYTE assay
[23] = biological target: Cytochrome P450 3A4 (Homo sapiens, UniProt P08684); experiment: Inhibition of CYP3A4 (unknown origin); type: ADME
[24] = biological target: Alpha-2C adrenergic receptor (Homo sapiens) (UniProt P18825); experiment: Displacement of [3H]rauwolscine from full-length recombinant human alpha2C receptor expressed in CHOK1 cells at 10 uM measured after 60 mins by scintillation counting method relative to control; type: cell-based; conditions: CHO-K1
Chain of Alpha-2C adrenergic receptor (Homo sapiens) (P18825 whole entry, the tested form may be a part): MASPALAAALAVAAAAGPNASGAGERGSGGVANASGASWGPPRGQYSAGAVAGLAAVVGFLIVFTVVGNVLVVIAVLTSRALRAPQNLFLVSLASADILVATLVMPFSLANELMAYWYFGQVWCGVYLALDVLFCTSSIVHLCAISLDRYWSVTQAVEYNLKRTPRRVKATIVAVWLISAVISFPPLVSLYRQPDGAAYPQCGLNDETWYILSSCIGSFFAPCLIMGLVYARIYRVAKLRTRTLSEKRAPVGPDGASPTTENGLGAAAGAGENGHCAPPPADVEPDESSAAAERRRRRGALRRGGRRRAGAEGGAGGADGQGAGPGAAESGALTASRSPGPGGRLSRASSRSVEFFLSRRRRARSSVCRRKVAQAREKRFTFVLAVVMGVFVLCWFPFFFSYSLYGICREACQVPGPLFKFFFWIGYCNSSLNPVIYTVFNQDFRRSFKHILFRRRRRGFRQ

[25] = biological target: Tyrosine-protein kinase receptor TYRO3 (Homo sapiens, UniProt Q06418); experiment: Inhibition of recombinant human GST-tagged RSE catalytic domain (451 to 890 residues) expressed in baculovirus expression system using tyrosine-2 peptide as substrate incubated for 60 mins in presence of ATP by Z'-LYTE assay
[26] = biological target: Serine/threonine-protein kinase MARK2 (Homo sapiens, UniProt Q7KZI7); experiment: Inhibition of recombinant full length human GST-tagged MARK2 expressed in baculovirus expression system using serine/threonine-21 peptide as substrate incubated for 60 mins in presence of ATP by Z'-LYTE assay
[27] = biological target: Platelet-derived growth factor receptor alpha (Homo sapiens, UniProt P16234, D842V); experiment: Inhibition of recombinant human GST-tagged PDGFRalpha D842V cytoplasmic domain expressed in baculovirus expression system using tyrosine-4 peptide as substrate incubated for 60 mins in presence of ATP by Z'-LYTE assay
Chain of Platelet-derived growth factor receptor alpha (P16234 24-1089 D842V limits assumed): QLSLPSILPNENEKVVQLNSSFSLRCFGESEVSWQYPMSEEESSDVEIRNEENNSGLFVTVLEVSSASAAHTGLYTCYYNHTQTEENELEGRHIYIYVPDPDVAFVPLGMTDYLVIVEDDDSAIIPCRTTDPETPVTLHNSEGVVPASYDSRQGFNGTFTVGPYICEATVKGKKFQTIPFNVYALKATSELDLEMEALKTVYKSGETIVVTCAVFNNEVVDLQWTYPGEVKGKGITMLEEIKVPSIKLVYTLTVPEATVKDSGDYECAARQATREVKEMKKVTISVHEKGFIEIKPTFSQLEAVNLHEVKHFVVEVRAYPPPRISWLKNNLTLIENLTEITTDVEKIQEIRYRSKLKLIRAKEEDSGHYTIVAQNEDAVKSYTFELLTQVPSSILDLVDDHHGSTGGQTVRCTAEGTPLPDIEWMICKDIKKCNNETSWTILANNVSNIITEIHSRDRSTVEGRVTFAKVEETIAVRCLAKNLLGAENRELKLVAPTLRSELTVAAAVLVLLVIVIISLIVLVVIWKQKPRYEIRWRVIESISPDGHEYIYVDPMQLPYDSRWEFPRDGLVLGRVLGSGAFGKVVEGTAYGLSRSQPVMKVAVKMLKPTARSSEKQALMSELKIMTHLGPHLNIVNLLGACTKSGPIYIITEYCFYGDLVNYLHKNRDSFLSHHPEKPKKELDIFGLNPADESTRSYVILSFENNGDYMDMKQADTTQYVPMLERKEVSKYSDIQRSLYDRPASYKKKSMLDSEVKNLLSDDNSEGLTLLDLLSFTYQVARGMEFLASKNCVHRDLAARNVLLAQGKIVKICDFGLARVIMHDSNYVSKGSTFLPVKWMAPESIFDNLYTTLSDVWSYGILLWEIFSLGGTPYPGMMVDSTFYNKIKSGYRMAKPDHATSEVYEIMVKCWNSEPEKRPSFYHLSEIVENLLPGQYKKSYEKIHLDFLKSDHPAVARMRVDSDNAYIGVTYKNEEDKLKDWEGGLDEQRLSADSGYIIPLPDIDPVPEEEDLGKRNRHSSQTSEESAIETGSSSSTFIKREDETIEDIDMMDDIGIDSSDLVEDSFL

C[C@@H]1C[C@H]1C(=O)N1CCN(c2cnc(C#N)c(-c3cnn(C)c3)n2)C[C@H]1C
IC50 [1]: > 100 µM | EC50 [2]: > 30 µM | IC50 [3]: > 100 µM | IC50 [4]: > 100 µM | IC50 [5]: > 100 µM | IC50 [6]: > 100 µM | IC50 [7]: > 100 µM | IC50 [8]: > 100 µM | IC50 [9]: > 100 µM | inhibition [10]: -1% | IC50 [11]: 23 µM | inhibition [12]: 2% | Ratio IC50 [13]: > 373 | IC50 [14]: > 100 µM | IC50 [15]: > 100 µM | inhibition [16]: 2% | IC50 [17]: > 100 µM | IC50 [18]: > 100 µM | inhibition [19]: 7% | inhibition [20]: 0% | inhibition [21]: -3% | IC50 [22]: > 100 µM | IC50 [23]: > 50 µM | inhibition [24]: 5% | IC50 [25]: > 100 µM | IC50 [26]: > 100 µM | IC50 [27]: > 100 µM

Reference: ChEMBL document CHEMBL4602617, “Discovery and optimization of heteroaryl piperazines as potent and selective PI3Kδ inhibitors” (Bioorg Med Chem Lett, 2020)
